This is an account of results in patent publication US10946024B2, “Method for treating cancer” (Epizyme, Inc., priority 2014, dated 2021).

Assay [1] deals with CDKN2A expression in HS-SY-II xenograft. The assay is described as follows: Gene expression changes in vivo in HS-SY-II xenograft by RT-PCR. More on the design: species or system mice. Conditions: 500 mg/kg oral twice daily for 7 days. On the procedure: Tumor samples were collected at approximately 3 hours after the last dose from mice used in analysis for PK values and PD alterations.

Assay [2] deals with ATF3, EGR1, CDKN2A expression in HS-SY-II cells. The assay is described as follows: Gene expression changes in vitro by RT-PCR, normalized to GAPDH. The class given is cell-based, human. Also on record: key to ATF3 expression change, significance 0 uM vs. / EGR1 expression change, significance 0 uM vs. / CDKN2A expression change, significance 0 uM vs.: *: Asterisks mean significant changes compared to levels of 0 μM-treated groups.; **: Asterisks mean significant changes compared to levels of 0 μM-treated groups.; ***: Asterisks mean significant changes compared to levels of 0 μM-treated groups.; ****: Asterisks mean significant changes compared to levels of 0 μM-treated groups. On the procedure: (§1) HS-SY-II and SW982 cells were treated with EZH2 inhibitors (Compound A or EPZ-011989) and collected at the indicated time points. Total RNA isolation and cDNA synthesis were performed using the TaqMan Gene Expression Cells-to-CT kit (4399002, Life technologies) according to the manufacturer's protocol. ATF3, EGR1, CDKN2A and GAPDH expression were analyzed by using the TaqMan Gene Expression Assays (Life technologies, 4331182) and the TaqMan Probes (Hs00231069_m1, Hs00152928_m1, Hs00233365_m1, and Hs99999905_m1, respectively).

The subject of assay [3] is ATF3, EGR1 expression in SW982 cells. The description is as above. To be noted: SW982 in vitro culture. In kind it is cell-based, human. On the procedure:
as §1

Assay [4] relates to H3K27me3 in HS-SY-II xenograft. Kind of assay: H3K27me3 by ELISA in HS-SY-II xenograft tumors harvested on Day 28 (second study). The class given is in vivo, mice. Conditions: Day 28, 3 h after the last dose. On the procedure:
FIGS. 10A to 10C show mean in vivo tumor volumes for athymic nude mice bearing HS-SY-II xenografts. In a first study, mice were dosed with either vehicle (oral for 28 days or iv on Day 1 and Day 22), Compound A (oral: 125 mg/kg, 250 mg/kg, or 500 mg/kg for 28 days), or Doxorubicin (iv: 10 mg/kg, Day 1 and Day 22); tumor volumes were measured twice a week (FIGS. 10A and 10B). In a second study, mice were dosed with either vehicle (oral for 28 days), Compound A (oral: 250 mg/kg or 500 mg/kg for 28 days), Doxorubicin (iv: 10 mg/kg on Day 1 and Day 22), or a combination of Doxorubicin (iv: 10 mg/kg on Day 1 and Day 22) and Compound A (oral: 250 mg/kg for 28 days) (FIG. 10C). Tumors from animals of the second study were harvested on Day 28 (3 h after the last dose) and subjected to H3K27me3 analysis by ELISA (FIG. 10D) or IHC for the proliferation marker Ki67 (FIG. 10E).
For FIG. 10D, tumors were snap-frozen in liquid nitrogen. […] Histones were quantified using the BCA protein assay (23225, Pierce). […] Subsequently, the developed colors in the wells were measured using a plate spectrophotometer (SpectraMax 250, Molecular Devices) at 450 nm (reference wavelength 650 nm). The H3K27me3 levels were adjusted to total histone H3, and expressed as fold changes to vehicle control. […] Histones were extracted and quantified, and the levels of H3K27me3 were analyzed as described above. […]
For orientation: An ELISA detects its analyte on a solid surface through an enzyme-linked reagent.

For the compound `CCN(c1cc(-c2ccc(CN3CCOCC3)cc2)cc(C(=O)NCc2c(C)cc(C)[nH]c2=O)c1C)C1CCOCC1` [Compound A], the “CDKN2A expression in tumor” value in assay [1] is “significantly upregulated”. In addition, in assay [2] (HS-SY-II in vitro culture), the “ATF3 and EGR1 expression” value was “upregulated”; the CDKN2A expression entry is “Dose- and time-dependent CDKN2A upregulation”. In addition, the “CDKN2A expression change, significance 0 uM vs.” value in assay [2] (HS-SY-II, 1 uM, day 2) is “**”. Moreover, in assay [2] (HS-SY-II, 1 uM, day 4), the “ATF3 expression change, significance 0 uM vs.” value is “*” and the “CDKN2A expression change, significance 0 uM vs.” value is “****”. Moreover, in assay [2] (HS-SY-II, 1 uM, day 7), the “ATF3 expression change, significance 0 uM vs.” value is reported as “**”; the “CDKN2A expression change, significance 0 uM vs.” value was “****”; the “EGR1 expression change, significance 0 uM vs.” value is “**”. Besides, the “ATF3 and EGR1 expression” value in assay [3] is given as “not in SW982”. In assay [4], the “H3K27me3 levels in tumors” value was “significantly reduced”.
